Measured values reported in US20020106348A1, “Cancer therapeutics involving the administration of 2-methoxyestradiol and an agent that increases intracellular superoxide anion” (priority 2000, published 2002).
Read-outs that look alike come from different tables or passages of the source.

Experiments:
HL-60 [1] = assay: MTT assay, HL-60 cells; type: cell-based; conditions: Homo sapiens, HL-60 (no p53)
[2] = tested on: leukemia cell lines, primary CLL cells, and normal lymphocytes; assay: Cellular accumulation of [3H]2-ME; type: in vitro ADME, human; conditions: 1 μM [3H]2-ME, 5-h incubation
Description: (§1) To determine cellular uptake of 2-ME, cells were incubated with 1 μM [^3H]2-ME (0.5 μCi/ml) for 5 h and when washed twice with cold PBS. Radioactivity associated with the cell pellets or the culture medium was quantitated by liquid scintillation counting. 2-ME concentrations were calculated based on the specific radioactivity of [^3H]2-ME, cell number, and the mean cell volume as measured by a Coulter Counter equipped with a 256-Channelyzer. HPLC was used to analyze potential cellular metabolites of 2-ME. Cells were incubated with [^3H]2-ME (0.5 μCi/ml) for 5 h, washed twice with PBS, and then extracted with 50% methanol. The extracts were analyzed by HPLC equipped with a UV detector (284 nm) and an on-line liquid scintillation counter, using a μBondapak C18 reversed-phase column and the following running conditions: 1 ml/min; 0-5 min, 100% buffer A (water:acetontrile:acetic acid=59:40:1); 5-17 min, a linear gradient of 0->100% buffer B (water:acetontrile:acetic acid=39:60:1); 17-30 min, 100% B.

[3] = tested on: ML-1, HL-60 and CLL cells; assay: HPLC analysis of cellular metabolites of [3H]2-ME; type: in vitro ADME, human; conditions: [3H]2-ME 0.5 μCi/ml, 5 h
Description: as §1

normal lymphocytes = assay: MTT assay, normal lymphocytes from healthy donors; type: cell-based, human; conditions: normal lymphocytes from 8 healthy donors; MTT 72 h / 96 h
HL-60 [4] = assay: Release of cytochrome c to cytosol; type: cell-based, human
ML-1 = assay: MTT assay, ML-1 leukemia cells; type: cell-based; conditions: Homo sapiens, ML1, ML-1 (wt p53)

COc1cc2c(cc1O)CC[C@@H]1[C@@H]2CC[C@]2(C)[C@@H](O)CC[C@@H]12 [2-ME, 1,3,5(10)-estratrien-2,3,17b-triol 2 methylether]
IC50 (HL-60 [1]): < 1000 nM | intracellular concentrating of drug [2]: approximately 10 fold | cellular drug metabolites [3]: no significant drug metabolites | cell survival (normal lymphocytes): no apparent loss of cell survival | cytosolic cytochrome c (HL-60 [4]; at 12 and 14 h): significant amounts of cytosolic cytochrome c were detected | cytosolic cytochrome c (HL-60 [4]; during the first 10 h): no cytochrome c was present in cytosol | IC50 (ML-1): < 1000 nM | rhodamine-123 fluorescence intensity (HL-60 cells; 14 h exposure, control 70-100 arbitrary units): 20-40 units | rhodamine-123 retention (HL-60 cells; by 22 h): almost all the cells had lost their ability to retain rhodamine-123 | rhodamine-123 retention (HL-60 cells; first 6 h of incubation): no obvious loss of dye retention
